Measurements: ChEMBL document CHEMBL1201862, “PubChem BioAssay data set” (2004)
Blank lines part the entries; values can stand above or below the compound they belong to. Activity calls are given as the source filed them. Unless noted, no cut-off for these calls is given here.

What was measured:
[1] = cytotoxicity in BJeH fibroblasts, dose response, counter-screen for Ras selective lethality project, BJeH cells, dry powder (AID 493054); assay type: functional, cell-based
[2] = biological target: C-C chemokine receptor type 6 (Homo sapiens, UniProt P51684); test: CCR6 receptor antagonists, dose response, cell-based, luminescent beta-arrestin readout (AID 504728); assay type: functional
[3] = biological target: Beta-galactosidase (Escherichia coli, UniProt Q8VNN2); test: beta-galactosidase enzyme inhibitors and activators, dose response, artefact control for CCR6 antagonist project, biochemical, E. coli enzyme, set 3 (AID 504712); assay type: functional
[4] = biological target: X-box-binding protein 1 (Homo sapiens, UniProt P17861); assay type: functional, Cricetulus griseus;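 note: confirmatory dose-response counter-screen serving a CHOP assay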
[5] = tested on: HeLa; test: Cytotoxicity counterscreen assay for transcriptional activators of heat shock protein 70 (Hsp70). [Related pubchem assays: 1203, 1252 ]; assay type: functional; conditions: Homo sapiens;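 note: cells exposed to compound for 16 hours before readout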
[6] = biological target: Acyl-homoserine lactone acylase PvdQ (Pseudomonas aeruginosa (strain LESB58), UniProt Q9I194); test: P. aeruginosa PvdQ acylase inhibitors, dose response, biochemical, fluorescence, plate reader and imaging, cherry-picks (AID 493231)
[7] = biological target: Trypsin (Sus scrofa, UniProt P00761); test: porcine trypsin inhibitors, dose response, selectivity assay for Rce1 protease inhibitor project, biochemical, quenched peptide fluorescence, cherry-pick (AID 488789)
[8] = biological target: CAAX prenyl protease 2 (Homo sapiens, UniProt Q9Y256); test: human Rce1 protease inhibitors, dose response, biochemical, yeast membranes, quenched-peptide fluorescence, cherry-pick (AID 588849)
[9] = biological target: Protein phosphatase methylesterase 1 (Homo sapiens, UniProt Q9Y570); test: PME-1 inhibitor potency by in-gel ABPP, dose response, selectivity assay for PME-1 inhibitor project, cell lysate, mouse brain cytosol, FP-rhodamine, panel member PME-1 Assay Panel member description: Inhibition of endogenously expressed PME-1 (AID 2366)
[10] = biological target: Scavenger receptor class B member 1 (Mus musculus, UniProt Q61009); test: inhibitors of SR-BI mediated HDL lipid uptake, dose response, ldlA[mSR-BI] cells, fluorescence, cherry pick (AID 493194); assay type: functional, cell-based;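 note: cellular uptake of fluorescent DiI-labeled HDL measured as cell fluorescence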
[11] = biological target: SUMO E1/E2 (Homo sapiens, UniProt P63279+Q9UBE0+Q9UBT2); test: SAR analysis of SUMOylation using HTRF in an in-Vitro dose response assay. [Related pubchem assays (depositor defined):AID2006, AID2011, AID2018, AID2069, AID2658]; assay type: functional
[12] = biological target: T1, Voltage-gated N-type calcium channel alpha-1B subunit/Amyloid beta A4 precursor protein-binding family A member 1 (Homo sapiens, UniProt Q00975+Q02410); test: disruptors of Mint-PDZ/N-type channel peptide interaction – biochemical, HTRF, set 2, SAR follow-up (AID 434980); assay type: functional
[13] = biological target: T1, Voltage-gated N-type calcium channel alpha-1B subunit/Amyloid beta A4 precursor protein-binding family A member 1; test: disruptors of Mint-PDZ/N-type channel peptide interaction – biochemical, HTRF, SAR follow-up (AID 2489); assay type: functional
[14] = biological target: Acylamino-acid-releasing enzyme (Homo sapiens, UniProt P13798); test: PME-1 inhibitor potency by in-gel ABPP, dose response, selectivity assay for PME-1 inhibitor project, cell lysate, mouse brain cytosol, FP-rhodamine, panel member APEH Assay Panel member description: Inhibition of N-acylaminoacyl-peptide hydrolase (APEH) (anti-target) (AID 2366)
Acylamino-acid-releasing enzyme, sequence (P13798 whole entry): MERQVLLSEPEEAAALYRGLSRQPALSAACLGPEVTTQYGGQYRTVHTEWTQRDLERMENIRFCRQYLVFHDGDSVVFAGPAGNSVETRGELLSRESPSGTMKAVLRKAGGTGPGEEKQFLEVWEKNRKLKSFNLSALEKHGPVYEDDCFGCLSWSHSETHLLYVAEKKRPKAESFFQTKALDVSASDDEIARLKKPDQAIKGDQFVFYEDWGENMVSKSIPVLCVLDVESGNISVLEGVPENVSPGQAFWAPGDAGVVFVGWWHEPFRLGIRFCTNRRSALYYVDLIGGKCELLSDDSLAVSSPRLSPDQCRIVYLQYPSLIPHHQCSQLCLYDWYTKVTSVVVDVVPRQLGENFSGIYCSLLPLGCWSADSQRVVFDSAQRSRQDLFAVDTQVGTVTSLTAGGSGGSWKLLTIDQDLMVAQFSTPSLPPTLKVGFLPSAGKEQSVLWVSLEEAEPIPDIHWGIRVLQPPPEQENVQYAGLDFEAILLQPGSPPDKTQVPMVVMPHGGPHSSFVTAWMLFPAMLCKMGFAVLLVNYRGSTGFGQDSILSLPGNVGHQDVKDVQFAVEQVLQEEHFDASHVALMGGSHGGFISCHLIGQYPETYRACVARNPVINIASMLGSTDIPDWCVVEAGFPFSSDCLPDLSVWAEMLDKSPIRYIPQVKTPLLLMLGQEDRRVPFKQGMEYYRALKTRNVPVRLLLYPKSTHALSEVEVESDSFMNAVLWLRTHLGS

T1 sequence (Q00975 whole entry): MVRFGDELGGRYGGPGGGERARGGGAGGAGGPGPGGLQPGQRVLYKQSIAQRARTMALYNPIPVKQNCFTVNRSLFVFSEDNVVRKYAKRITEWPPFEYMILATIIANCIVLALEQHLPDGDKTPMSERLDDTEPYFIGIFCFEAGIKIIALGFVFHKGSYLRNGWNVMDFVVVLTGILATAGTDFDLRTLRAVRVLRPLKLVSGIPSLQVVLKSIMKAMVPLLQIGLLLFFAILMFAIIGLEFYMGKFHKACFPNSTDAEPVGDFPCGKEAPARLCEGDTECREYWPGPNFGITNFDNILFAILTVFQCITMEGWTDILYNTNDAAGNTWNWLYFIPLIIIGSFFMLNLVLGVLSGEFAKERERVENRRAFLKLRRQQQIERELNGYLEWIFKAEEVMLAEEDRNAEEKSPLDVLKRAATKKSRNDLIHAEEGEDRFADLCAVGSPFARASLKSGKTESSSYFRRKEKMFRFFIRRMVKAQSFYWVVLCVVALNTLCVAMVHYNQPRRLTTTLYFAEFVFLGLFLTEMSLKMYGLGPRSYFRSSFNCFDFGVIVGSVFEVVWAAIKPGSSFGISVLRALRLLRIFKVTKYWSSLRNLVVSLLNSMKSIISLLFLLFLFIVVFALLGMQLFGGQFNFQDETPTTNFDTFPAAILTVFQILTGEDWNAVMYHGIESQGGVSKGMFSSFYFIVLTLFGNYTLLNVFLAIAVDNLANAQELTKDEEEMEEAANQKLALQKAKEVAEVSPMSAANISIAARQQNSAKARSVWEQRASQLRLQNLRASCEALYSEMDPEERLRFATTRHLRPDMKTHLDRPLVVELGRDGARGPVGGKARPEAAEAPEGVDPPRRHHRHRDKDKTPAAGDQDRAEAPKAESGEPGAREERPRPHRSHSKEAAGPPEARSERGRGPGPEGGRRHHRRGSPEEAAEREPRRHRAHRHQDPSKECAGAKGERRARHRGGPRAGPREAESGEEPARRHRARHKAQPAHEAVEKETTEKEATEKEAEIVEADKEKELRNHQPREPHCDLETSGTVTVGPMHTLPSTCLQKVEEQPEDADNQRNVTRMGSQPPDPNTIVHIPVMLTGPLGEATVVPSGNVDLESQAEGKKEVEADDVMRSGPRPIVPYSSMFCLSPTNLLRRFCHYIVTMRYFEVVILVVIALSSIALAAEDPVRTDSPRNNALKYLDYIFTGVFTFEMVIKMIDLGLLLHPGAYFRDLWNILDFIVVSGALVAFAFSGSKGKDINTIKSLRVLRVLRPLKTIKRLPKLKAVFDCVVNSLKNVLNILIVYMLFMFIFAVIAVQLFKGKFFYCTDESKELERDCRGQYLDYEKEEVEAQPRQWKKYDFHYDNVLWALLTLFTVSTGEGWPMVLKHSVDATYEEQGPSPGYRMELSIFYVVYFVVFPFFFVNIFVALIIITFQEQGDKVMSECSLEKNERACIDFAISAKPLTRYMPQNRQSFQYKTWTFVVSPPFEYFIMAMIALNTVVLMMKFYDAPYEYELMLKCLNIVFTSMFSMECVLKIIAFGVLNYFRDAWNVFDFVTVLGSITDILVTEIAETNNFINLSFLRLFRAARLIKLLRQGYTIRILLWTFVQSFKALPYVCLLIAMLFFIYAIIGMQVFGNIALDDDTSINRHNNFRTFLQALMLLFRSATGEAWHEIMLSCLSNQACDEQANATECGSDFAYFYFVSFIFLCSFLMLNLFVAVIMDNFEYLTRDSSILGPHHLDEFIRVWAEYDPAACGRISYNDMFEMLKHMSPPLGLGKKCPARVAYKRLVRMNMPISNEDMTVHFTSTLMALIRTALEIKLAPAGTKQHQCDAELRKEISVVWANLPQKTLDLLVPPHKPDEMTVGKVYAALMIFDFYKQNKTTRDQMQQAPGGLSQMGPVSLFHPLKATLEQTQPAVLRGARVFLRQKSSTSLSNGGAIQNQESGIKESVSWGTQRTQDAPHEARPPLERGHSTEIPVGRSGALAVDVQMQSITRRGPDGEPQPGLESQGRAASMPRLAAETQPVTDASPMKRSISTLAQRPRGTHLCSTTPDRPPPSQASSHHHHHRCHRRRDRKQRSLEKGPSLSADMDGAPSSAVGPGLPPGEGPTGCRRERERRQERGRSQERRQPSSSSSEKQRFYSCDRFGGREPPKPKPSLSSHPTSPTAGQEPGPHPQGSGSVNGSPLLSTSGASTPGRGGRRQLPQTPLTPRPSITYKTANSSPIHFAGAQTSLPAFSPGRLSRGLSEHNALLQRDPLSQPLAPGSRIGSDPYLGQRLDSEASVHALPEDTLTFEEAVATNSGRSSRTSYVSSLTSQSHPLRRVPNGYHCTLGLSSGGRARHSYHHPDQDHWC
T1 sequence (Q02410 whole entry): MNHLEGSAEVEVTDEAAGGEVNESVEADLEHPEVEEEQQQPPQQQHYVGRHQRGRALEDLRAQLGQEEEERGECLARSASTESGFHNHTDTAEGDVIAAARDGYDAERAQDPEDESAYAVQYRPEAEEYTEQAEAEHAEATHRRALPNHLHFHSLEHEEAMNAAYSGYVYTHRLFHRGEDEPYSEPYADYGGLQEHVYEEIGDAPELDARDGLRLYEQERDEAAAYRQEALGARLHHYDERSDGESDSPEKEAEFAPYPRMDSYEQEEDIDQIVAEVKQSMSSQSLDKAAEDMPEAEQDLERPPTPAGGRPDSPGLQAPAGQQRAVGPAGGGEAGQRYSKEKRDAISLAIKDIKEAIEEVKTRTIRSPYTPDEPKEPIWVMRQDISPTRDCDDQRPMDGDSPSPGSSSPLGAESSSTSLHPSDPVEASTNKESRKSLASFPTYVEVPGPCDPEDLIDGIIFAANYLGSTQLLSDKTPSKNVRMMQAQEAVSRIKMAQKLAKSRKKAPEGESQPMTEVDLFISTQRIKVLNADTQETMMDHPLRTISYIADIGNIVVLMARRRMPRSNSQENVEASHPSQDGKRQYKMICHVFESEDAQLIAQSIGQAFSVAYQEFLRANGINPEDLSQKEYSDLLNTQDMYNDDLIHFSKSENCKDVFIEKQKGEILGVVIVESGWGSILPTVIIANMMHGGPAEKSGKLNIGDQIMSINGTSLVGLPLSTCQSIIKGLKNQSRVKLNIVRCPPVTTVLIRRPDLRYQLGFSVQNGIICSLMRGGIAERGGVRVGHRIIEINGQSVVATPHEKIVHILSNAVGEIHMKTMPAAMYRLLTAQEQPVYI
Beta-galactosidase, sequence (Q8VNN2 whole entry): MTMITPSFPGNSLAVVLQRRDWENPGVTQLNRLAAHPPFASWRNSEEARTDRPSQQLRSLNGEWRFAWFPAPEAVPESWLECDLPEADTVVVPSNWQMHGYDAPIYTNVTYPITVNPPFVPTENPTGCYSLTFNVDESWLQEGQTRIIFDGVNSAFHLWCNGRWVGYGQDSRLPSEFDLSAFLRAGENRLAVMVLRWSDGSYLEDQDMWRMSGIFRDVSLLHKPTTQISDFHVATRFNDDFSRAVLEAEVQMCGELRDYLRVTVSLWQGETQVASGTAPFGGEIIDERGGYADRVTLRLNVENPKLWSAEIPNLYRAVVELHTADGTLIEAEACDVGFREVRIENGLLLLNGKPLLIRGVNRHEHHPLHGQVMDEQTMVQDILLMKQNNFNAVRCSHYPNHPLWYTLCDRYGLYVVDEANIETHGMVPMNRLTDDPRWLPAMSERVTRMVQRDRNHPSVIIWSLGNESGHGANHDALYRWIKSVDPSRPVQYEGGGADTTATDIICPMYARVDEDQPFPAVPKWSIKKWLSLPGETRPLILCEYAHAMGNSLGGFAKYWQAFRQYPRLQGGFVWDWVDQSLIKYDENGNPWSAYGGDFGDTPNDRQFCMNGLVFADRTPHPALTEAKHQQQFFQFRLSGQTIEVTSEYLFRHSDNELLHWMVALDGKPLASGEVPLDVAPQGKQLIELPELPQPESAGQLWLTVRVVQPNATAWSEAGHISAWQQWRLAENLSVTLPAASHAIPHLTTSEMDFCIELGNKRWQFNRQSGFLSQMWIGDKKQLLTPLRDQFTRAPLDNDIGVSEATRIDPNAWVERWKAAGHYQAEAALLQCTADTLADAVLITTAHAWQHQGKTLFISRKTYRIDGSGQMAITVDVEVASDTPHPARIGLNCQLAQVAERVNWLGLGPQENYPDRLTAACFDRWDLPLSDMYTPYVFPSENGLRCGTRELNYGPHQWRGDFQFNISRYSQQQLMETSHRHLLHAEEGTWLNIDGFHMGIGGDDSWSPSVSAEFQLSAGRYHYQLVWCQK

SMILES: COc1ccc(N(C(=O)CSc2ncccn2)C(C(=O)NCCc2ccccc2)c2cccs2)cc1Cl (centres undefined)
AC50 [1]: > 381 µM (inactive)

SMILES: COC(=O)N/N=C/c1cc(N=Nc2ccccc2Cl)ccc1O
IC50 [2]: > 66.6 µM (inactive)
IC50 [3]: > 66.6 µM (inactive)

SMILES: CCOC(=O)C1CCN(c2ccc([N+](=O)[O-])cc2)CC1
CC50 [5]: > 33 µM (not active)
AC50 [6]: 40.5 µM (active)

SMILES: CCOP(=O)(c1ccccc1)c1nc(-c2ccccc2Cl)oc1N1CCCCC1 (centres undefined)
AC50 [7]: 4.67 µM (active)
AC50 [8]: 5.21 µM (active)

SMILES: COC(=O)c1ccc(CNC(=O)COC(=O)c2cc(-c3ccco3)nc3ccccc23)cc1
IC50 [11]: 2.23 µM (active)
IC50 [12]: 6.74 µM (active)
IC50 [13]: 19.2 µM (active)

Now from value to compound:

Absolute IC50 (XBP1) [4]: 10 µM
SMILES: O=C(CNc1cccc(C(F)(F)F)c1)N/N=C/c1cccc(Br)c1

IC50 [9]: > 20 µM (inactive)
SMILES: CS(=O)(=O)/C(C#N)=C/c1cccn1S(=O)(=O)c1ccc([N+](=O)[O-])cc1[N+](=O)[O-]

AC50 [10]: 6.53 µM (active)
SMILES: COc1cc(NC(=O)c2ccco2)c(OC)cc1NC(=O)Nc1ccc(Cl)cc1

IC50 [14]: 20 µM (inactive)
SMILES: CS(=O)(=O)/C(C#N)=C/c1cccn1S(=O)(=O)c1ccccc1
